# Earlier results, collected in PubChem BioAssay AID1259409 (Chemical Carcinogenesis Research Information System (CCRIS), 2018).
# *1 amine or outer side, *2 acyl side, *3 side chain or, on linkers, in order; H or OH if unused. Where a SMILES comes first, the peptide text is derived from it. [ ]: non-standard residue; d: D form. X1 = O=C(C(N[*:1])c1ccc(OS(=O)(=O)O)cc1)[*:2]
# Tested on: rodent chemically induced tumor inhibition, incidence and multiplicity
# Experiment: CCRIS tumor inhibitor studies
# Details: Carcinogen: N-NITROSOBIS(2-OXOPROPYL)AMINE, 60599-38-4, Route [Inhibitor]: SUBCUTANEOUS, Species: HAMSTER, Strain/Sex: SYRIAN/MALE, FEMALE, Promoter: NONE USED
compound,measurement,setting,value
CCC(C)C(NC(=O)C(CCCNC(=N)N)NC(=O)C(Cc1c[nH]cn1)NC(=O)C(CO)NC(=O)C1CCCN1C(=O)C(CC(=O)O)NC(=O)C(CC(C)C)NC(=O)C(CC(N)=O)NC(=O)C(CCC(N)=O)NC(=O)C(CC(C)C)NC(=O)C(CC(N)=O)NC(=O)C(CCCCN)NC(=O)C(NC(=O)C(NC(=O)C(CO)NC(=O)C(CCSC)NC(=O)C(CCCNC(=N)N)NC(=O)CNC(=O)C(CO)NC(=O)C1CCCN1C(=O)C(C)NC(=O)C(N)CCCCN)C(C)CC)C(C)C)C(=O)NC(CO)C(=O)NC(CC(=O)O)C(=O)NC(CCCNC(=N)N)C(=O)NC(CC(=O)O)C(=O)NC(C(=O)NC(CCSC)C(=O)NCC(=O)NC(Cc1c[nH]c2ccccc12)C(=O)NC(CCSC)C(=O)NC(CC(=O)O)C(=O)NC(Cc1ccccc1)C(N)=O)c1ccc(OS(=O)(=O)O)cc1 (stereo not given) (H-KAPSGRMSIVKNLQNLDPSHRISDRD[X1]MGWMDF-NH2; configuration not given here),"tumour outcome (control, treated, inhibition, significance)","Dose [Inhibitor]: 20 IDU/KG BW 6/D FOR 15 WK FIRST DOSE GIVEN 3 HR POST CARCINOGEN DOSE (STUDY DURATION: 46 WK), Target Tissue: Type of Lesion: PANCREAS: DUCTAL/DUCTULAR CARCINOMA, Dose [Carcinogen]: 20 MG/KG BW IN PHYSIOLOGICAL SALINE ONCE","21/40 (52%), 10/37 (27%), 48%, p<0.05"
same,"tumour outcome (control, treated, inhibition, significance)","Dose [Inhibitor]: 20 IDU/KG BW 6/D FOR 15 WK FIRST DOSE GIVEN 3 HR POST CARCINOGEN DOSE (STUDY DURATION: 46 WK), Target Tissue: Type of Lesion: PANCREAS: DUCTULAR ADENOMA, Dose [Carcinogen]: 20 MG/KG BW IN PHYSIOLOGICAL SALINE ONCE","31/40 (78%), 22/37 (59%), 24%, not calculated"
same,"tumour outcome (control, treated, inhibition, significance)","Dose [Inhibitor]: 20 IDU/KG BW 6/D FOR 15 WK FIRST DOSE GIVEN 3 HR POST CARCINOGEN DOSE (STUDY DURATION: 46 WK), Target Tissue: Type of Lesion: PANCREAS: DUCTULAR PROLIFERATION, Dose [Carcinogen]: 20 MG/KG BW IN PHYSIOLOGICAL SALINE ONCE","37/40 (92%), 35/37 (95%), -3%, not calculated"
same,"tumour outcome (control, treated, inhibition, significance)","Dose [Inhibitor]: 20 IDU/KG BW INJECTED AT 30 MIN INTERVALS FOR 6 DOSES, FIRST DOSE GIVEN 3 HR POST CARCINOGEN DOSE (STUDY DURATION: 46 WK, Target Tissue: Type of Lesion: PANCREAS: DUCTAL/DUCTULAR CARCINOMA, Dose [Carcinogen]: 20 MG/KG BW IN PHYSIOLOGICAL SALINE ONCE","21/40 (52%), 17/39 (44%), 15%, not calculated"
same,"tumour outcome (control, treated, inhibition, significance)","Dose [Inhibitor]: 20 IDU/KG BW INJECTED AT 30 MIN INTERVALS FOR 6 DOSES, FIRST DOSE GIVEN 3 HR POST CARCINOGEN DOSE (STUDY DURATION: 46 WK, Target Tissue: Type of Lesion: PANCREAS: DUCTULAR PROLIFERATION, Dose [Carcinogen]: 20 MG/KG BW IN PHYSIOLOGICAL SALINE ONCE","37/40 (92%), 37/39 (95%), -3%, not calculated"
same,"tumour outcome (control, treated, inhibition, significance)","Dose [Inhibitor]: 20 IDU/KG BW INJECTED AT 30 MIN INTERVALS FOR 6 DOSES, FIRST DOSE GIVEN 3 HR POST EACH CARCINOGEN DOSE (STUDY DURATION:, Target Tissue: Type of Lesion: PANCREAS: DUCTAL ADENOMA, Dose [Carcinogen]: 2.5 MG/KG BW IN PHYSIOLOGICAL SALINE 1/WK FOR 20 WK","17/25 (68%), 20/25 (80%), -18%, not calculated"
same,"tumour outcome (control, treated, inhibition, significance)","Dose [Inhibitor]: 20 IDU/KG BW INJECTED AT 30 MIN INTERVALS FOR 6 DOSES, FIRST DOSE GIVEN 3 HR POST EACH CARCINOGEN DOSE (STUDY DURATION:, Target Tissue: Type of Lesion: PANCREAS: DUCTAL PROLIFERATION, Dose [Carcinogen]: 2.5 MG/KG BW IN PHYSIOLOGICAL SALINE 1/WK FOR 20 WK","22/25 (88%), 23/25 (92%), -5%, not calculated"
same,"tumour outcome (control, treated, inhibition, significance)","Dose [Inhibitor]: 20 IDU/KG BW INJECTED AT 30 MIN INTERVALS FOR 6 DOSES, FIRST DOSE GIVEN 3 HR POST EACH CARCINOGEN DOSE (STUDY DURATION:, Target Tissue: Type of Lesion: PANCREAS: DUCTAL/DUCTULAR CARCINOMA, Dose [Carcinogen]: 2.5 MG/KG BW IN PHYSIOLOGICAL SALINE 1/WK FOR 20 WK","15/25 (60%), 23/25 (92%), -53%, not calculated"
same,"tumour outcome (control, treated, inhibition, significance)","Dose [Inhibitor]: 20 IDU/KG BW INJECTED AT 30 MIN INTERVALS FOR 6 DOSES, FIRST DOSE GIVEN SIMULTANEOUSLY WITH CARCINOGEN DOSE (STUDY DURAT, Target Tissue: Type of Lesion: PANCREAS: DUCTAL/DUCTULAR CARCINOMA, Dose [Carcinogen]: 20 MG/KG BW IN PHYSIOLOGICAL SALINE ONCE","21/40 (52%), 5/39 (13%), 75%, p<0.001"
same,"tumour outcome (control, treated, inhibition, significance)","Dose [Inhibitor]: 20 IDU/KG BW INJECTED AT 30 MIN INTERVALS FOR 6 DOSES, FIRST DOSE GIVEN SIMULTANEOUSLY WITH CARCINOGEN DOSE (STUDY DURAT, Target Tissue: Type of Lesion: PANCREAS: DUCTULAR ADENOMA, Dose [Carcinogen]: 20 MG/KG BW IN PHYSIOLOGICAL SALINE ONCE","31/40 (78%), 23/39 (59%), 24%, not calculated"
same,"tumour outcome (control, treated, inhibition, significance)","Dose [Inhibitor]: 20 IDU/KG BW INJECTED AT 30 MIN INTERVALS FOR 6 DOSES, FIRST DOSE GIVEN SIMULTANEOUSLY WITH CARCINOGEN DOSE (STUDY DURAT, Target Tissue: Type of Lesion: PANCREAS: DUCTULAR PROLIFERATION, Dose [Carcinogen]: 20 MG/KG BW IN PHYSIOLOGICAL SALINE ONCE","37/40 (92%), 35/39 (90%), 2%, not calculated"
same,"tumour outcome (control, treated, inhibition, significance)","Dose [Inhibitor]: 20 IDU/KG BW INJECTED AT 30 MIN INTERVALS FOR 6 DOSES, FIRST DOSE GIVEN SIMULTANEOUSLY WITH EACH CARCINOGEN DOSE (STUDY, Target Tissue: Type of Lesion: PANCREAS: DUCTAL ADENOMA, Dose [Carcinogen]: 2.5 MG/KG BW IN PHYSIOLOGICAL SALINE 1/WK FOR 20 WK","17/25 (68%), 21/24 (88%), -29%, not calculated"
same,"tumour outcome (control, treated, inhibition, significance)","Dose [Inhibitor]: 20 IDU/KG BW INJECTED AT 30 MIN INTERVALS FOR 6 DOSES, FIRST DOSE GIVEN SIMULTANEOUSLY WITH EACH CARCINOGEN DOSE (STUDY, Target Tissue: Type of Lesion: PANCREAS: DUCTAL PROLIFERATION, Dose [Carcinogen]: 2.5 MG/KG BW IN PHYSIOLOGICAL SALINE 1/WK FOR 20 WK","22/25 (88%), 22/24 (92%), -5%, not calculated"
same,"tumour outcome (control, treated, inhibition, significance)","Dose [Inhibitor]: 20 IDU/KG BW INJECTED AT 30 MIN INTERVALS FOR 6 DOSES, FIRST DOSE GIVEN SIMULTANEOUSLY WITH EACH CARCINOGEN DOSE (STUDY, Target Tissue: Type of Lesion: PANCREAS: DUCTAL/DUCTULAR CARCINOMA, Dose [Carcinogen]: 2.5 MG/KG BW IN PHYSIOLOGICAL SALINE 1/WK FOR 20 WK","15/25 (60%), 18/24 (75%), -25%, not calculated"
same,"tumour outcome (control, treated, inhibition, significance)","Dose [Inhibitor]: 20 IDU/KG BW INJECTED AT 30 MIN INTERVALS FOR 6 DOSES, LAST DOSE 3 HR PRIOR TO CARCINOGEN DOSE (STUDY DURATION: 46 WK), Target Tissue: Type of Lesion: PANCREAS: DUCTAL/DUCTULAR CARCINOMA, Dose [Carcinogen]: 20 MG/KG BW IN PHYSIOLOGICAL SALINE ONCE","21/40 (52%), 8/37 (22%), 58%, p<0.025"
same,"tumour outcome (control, treated, inhibition, significance)","Dose [Inhibitor]: 20 IDU/KG BW INJECTED AT 30 MIN INTERVALS FOR 6 DOSES, LAST DOSE 3 HR PRIOR TO CARCINOGEN DOSE (STUDY DURATION: 46 WK), Target Tissue: Type of Lesion: PANCREAS: DUCTULAR ADENOMA, Dose [Carcinogen]: 20 MG/KG BW IN PHYSIOLOGICAL SALINE ONCE","31/40 (78%), 19/37 (51%), 35%, not calculated"
same,"tumour outcome (control, treated, inhibition, significance)","Dose [Inhibitor]: 20 IDU/KG BW INJECTED AT 30 MIN INTERVALS FOR 6 DOSES, LAST DOSE 3 HR PRIOR TO CARCINOGEN DOSE (STUDY DURATION: 46 WK), Target Tissue: Type of Lesion: PANCREAS: DUCTULAR PROLIFERATION, Dose [Carcinogen]: 20 MG/KG BW IN PHYSIOLOGICAL SALINE ONCE","37/40 (92%), 33/37 (89%), 3%, not calculated"
same,"tumour outcome (control, treated, inhibition, significance)","Dose [Inhibitor]: 20 IDU/KG BW INJECTED AT 30 MIN INTERVALS FOR 6 DOSES, LAST DOSE GIVEN 3 HR PRIOR TO EACH CARCINOGEN DOSE (STUDY DURATIO, Target Tissue: Type of Lesion: PANCREAS: DUCTAL ADENOMA, Dose [Carcinogen]: 2.5 MG/KG BW IN PHYSIOLOGICAL SALINE 1/WK FOR 20 WK","17/25 (68%), 25/29 (89%), -31%, not calculated"
same,"tumour outcome (control, treated, inhibition, significance)","Dose [Inhibitor]: 20 IDU/KG BW INJECTED AT 30 MIN INTERVALS FOR 6 DOSES, LAST DOSE GIVEN 3 HR PRIOR TO EACH CARCINOGEN DOSE (STUDY DURATIO, Target Tissue: Type of Lesion: PANCREAS: DUCTAL PROLIFERATION, Dose [Carcinogen]: 2.5 MG/KG BW IN PHYSIOLOGICAL SALINE 1/WK FOR 20 WK","22/25 (88%), 24/29 (86%), 2%, not calculated"
same,"tumour outcome (control, treated, inhibition, significance)","Dose [Inhibitor]: 20 IDU/KG BW INJECTED AT 30 MIN INTERVALS FOR 6 DOSES, LAST DOSE GIVEN 3 HR PRIOR TO EACH CARCINOGEN DOSE (STUDY DURATIO, Target Tissue: Type of Lesion: PANCREAS: DUCTAL/DUCTULAR CARCINOMA, Dose [Carcinogen]: 2.5 MG/KG BW IN PHYSIOLOGICAL SALINE 1/WK FOR 20 WK","15/25 (60%), 23/29 (82%), -37%, not calculated"
